Measurements from PubChem BioAssay AID651852 (Vanderbilt Specialized Chemistry Center, 2012).
Calls of active or inactive are those of the source. The rule behind the calls is not given here.

Molecular target: Metabotropic glutamate receptor 5 (Rattus norvegicus) (UniProt P31424)
Assay: PubChem AID 651852
Conditions: HEK293 rat mGluR5 membranes, radioligand competition binding

Chain of Metabotropic glutamate receptor 5 (Rattus norvegicus) (P31424 whole entry, looked up): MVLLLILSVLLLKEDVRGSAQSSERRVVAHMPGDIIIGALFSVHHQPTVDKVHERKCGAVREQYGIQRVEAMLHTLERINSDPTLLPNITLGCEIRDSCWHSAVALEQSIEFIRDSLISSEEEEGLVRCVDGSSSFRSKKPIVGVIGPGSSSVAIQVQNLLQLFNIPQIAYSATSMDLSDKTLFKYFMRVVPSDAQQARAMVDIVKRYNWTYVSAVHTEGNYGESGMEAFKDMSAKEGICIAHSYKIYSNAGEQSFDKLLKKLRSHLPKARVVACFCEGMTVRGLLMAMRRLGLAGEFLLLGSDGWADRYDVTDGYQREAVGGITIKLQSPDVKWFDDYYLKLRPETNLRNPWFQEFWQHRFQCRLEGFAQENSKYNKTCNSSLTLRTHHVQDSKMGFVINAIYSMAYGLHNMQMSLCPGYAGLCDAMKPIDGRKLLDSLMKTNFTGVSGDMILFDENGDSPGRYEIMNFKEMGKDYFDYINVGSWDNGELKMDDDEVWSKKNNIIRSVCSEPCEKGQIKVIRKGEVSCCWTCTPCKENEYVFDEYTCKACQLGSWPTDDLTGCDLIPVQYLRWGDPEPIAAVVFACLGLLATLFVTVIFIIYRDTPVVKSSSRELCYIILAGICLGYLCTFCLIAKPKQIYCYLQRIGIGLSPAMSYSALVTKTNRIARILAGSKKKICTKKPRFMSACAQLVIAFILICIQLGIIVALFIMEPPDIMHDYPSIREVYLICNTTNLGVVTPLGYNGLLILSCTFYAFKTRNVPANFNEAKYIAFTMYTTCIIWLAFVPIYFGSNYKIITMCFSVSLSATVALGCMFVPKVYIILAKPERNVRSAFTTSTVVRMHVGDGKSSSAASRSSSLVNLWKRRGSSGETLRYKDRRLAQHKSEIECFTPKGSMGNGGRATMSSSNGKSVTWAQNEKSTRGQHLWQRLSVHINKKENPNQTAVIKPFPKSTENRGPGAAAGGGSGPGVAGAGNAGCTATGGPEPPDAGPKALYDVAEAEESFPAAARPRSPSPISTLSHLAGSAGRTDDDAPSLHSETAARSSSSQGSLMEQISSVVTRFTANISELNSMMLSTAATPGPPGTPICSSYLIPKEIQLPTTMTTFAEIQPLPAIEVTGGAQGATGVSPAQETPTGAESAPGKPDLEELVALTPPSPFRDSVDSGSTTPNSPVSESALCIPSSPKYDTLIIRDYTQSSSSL

Structure (SMILES) | IC50
O=S(=O)(c1ccc(C#Cc2cccc(F)c2)cc1)N1CCOCC1 | > 30 µM (inactive)
O=S(=O)(c1ccc(F)cc1)N1CCCC(c2nc(-c3ccc(F)cc3)no2)C1 (stereo not drawn) | > 30 µM (inactive)
CS(=O)(=O)N(CC(=O)NCC1CC1)c1cc(C(F)(F)F)ccc1Cl | > 30 µM (inactive)
